For data set [1], the target named is GABAa receptor. Briefly: GABAa receptor binding assay (3H-RO15-1788 displacement). To be noted: rat cortical tissue homogenate; radioligand 0.5 nM 3H-RO15-1788 [3H-Flumazenil]; 30 min at 4° C. As for the experimental part:
The pharmaceutical utility of compounds of this invention are indicated by the following assay for GABAa receptor binding activity.
Assays are carried out as described in Thomas and Tallman (J. Bio. Chem. 156:9838-9842 , J. Neurosci. 3:433-440, 1983). Rat cortical tissue is dissected and homogenized in 25 volumes (w/v) of 0.05 M Tris HCl buffer (pH 7.4 at 4° C.). The tissue homogenate is centrifuged in the cold (4°) at 20,000×g for 20′. The supernatant is decanted and the pellet is rehomogenized in the same volume of buffer and again centrifuged at 20,000×g. The supernatant is decanted and the pellet is frozen at −20° C. overnight. The pellet is then thawed and rehomogenized in 25 volume (original wt/vol) of buffer and the procedure is carried out twice. The pellet is finally resuspended in 50 volumes (w/vol of 0.05 M Tris HCl buffer (pH 7.4 at […]).
Incubations contain […] of tissue homogenate, […] of radioligand 0.5 nM (^3H-RO15-1788 [^3H-Flumazenil] specific activity 80 Ci/mmol), drug or blocker and buffer to a total volume of […]. Incubations are carried for 30 min at 4° C. then are rapidly filtered through GFB filters to separate free and bound ligand. Filters are washed twice with fresh 0.05 M Tris HCl buffer (pH 7.4 at 4° C.) and counted in a liquid scintillation counter. […] diazepam is added to some tubes to determine nonspecific binding. Data are collected in triplicate determinations, averaged and % inhibition of total specific binding is calculated. Total Specific Binding=Total−Nonspecific. In some cases, the amounts of unlabeled drugs is varied and total displacement curves of binding are carried out.

Structures are written as SMILES. pKi: −log10 of the molar value. Some results are limits rather than exact numbers.

`CNCc1cccc(NC(=O)c2c[nH]c3c2C(=O)CCC3)c1` [Compound 1, N-[3-(Methylaminomethyl)phenyl]-4-oxo-4,5,6,7-tetrahydro-1H-indole-3-carboxamide] showed a melting point of 130 to 132 °C. In addition, in data set [1], the negative-log Ki (pKi) was 7.05.
For the molecule `COCCOc1ccc(NC(=O)c2c[nH]c3c2C(=O)CCC3)cc1` [Compound 2, N-[4-(Methoxyethoxy)phenyl]-4-oxo-4,5,6,7-tetrahydro-1H-indole-3-carboxamide], the negative logarithm of the Ki (pKi) in data set [1] is 7.54.
In the case of `CNCc1ccc(NC(=O)c2c[nH]c3c2C(=O)CCC3)c(F)c1` [Compound 3, N-[2-Fluoro-4-(methylaminomethyl)phenyl]-4-oxo-4,5,6,7-tetrahydro-1H-indole-3-carboxamide], the melting point lay within 186 to 188 °C. The molecule further gave a pKi in data set [1] of 7.31.
The like results for `CNCCc1ccc(NC(=O)c2c[nH]c3c2C(=O)CCC3)cc1` [Compound 4, N-[4-(2-Methylaminoethyl)phenyl]-4-oxo-4,5,6,7-tetrahydro-1H-indole-3-carboxamide] were, in that order, 197 to 200 °C and 9.62.
The matching figures for `O=C(Nc1ccc(CNC2CC2)cc1)c1c[nH]c2c1C(=O)CCC2` [Compound 5, N-[4-(Cyclopropylaminomethyl)phenyl]-4-oxo-4,5,6,7-tetrahydro-1H-indole-3-carboxamide]: 171 to 173 °C and 8.05.
For `NCc1ccc(NC(=O)c2c[nH]c3c2C(=O)CCC3)cc1` [Compound 6, N-[4-(Aminomethyl)phenyl]-4-oxo-4,5,6,7-tetrahydro-1H-indole-3-carboxamide], the melting point was > 200 °C (dec.). The molecule further gave a pKi in data set [1] of 8.05.
`CNCc1ccc(NC(=O)c2c[nH]c3c2C(=O)CCCC3)cc1` [Compound 7]: the melting point is 173 to 175 °C. Further, the pKi in data set [1] was 7.52.
Molecule `CC1(C)CC(=O)c2c(C(=O)Nc3cccc(CO)c3)c[nH]c2C1` [Compound 8, N-[3-(Hydroxymethyl)phenyl]-4-oxo-6,6-dimethyl-4,5,6,7-tetrahydro-1H-indole-3-carboxamide] came in with a melting point of 233 to 235 °C. Moreover, the negative-log Ki (pKi) in data set [1] is 7.57.
For the molecule `CC1CC(=O)c2c(C(=O)Nc3ccc(OCCO)cc3)c[nH]c2C1` (centres unmarked) [Compound 9, N-[4-(2-Hydroxyethoxy)phenyl]-4-oxo-6-methyl-4,5,6,7-tetrahydro-1H-indole-3-carboxamide], the melting point was in the range of 245 to 247 °C. This molecule also showed a pKi in data set [1] of 8.89.
On to `O=C(Nc1ccc(OCCO)nc1)c1c[nH]c2c1C(=O)CCC2` [Compound 14], for which, in data set [1], the pKi was 8.52.
`CCOC(=O)COc1ccc(NC(=O)c2c[nH]c3c2C(=O)CCC3)cc1F` [Compound 222, N-[3-Fluoro-4-(2-ethoxy-2-oxoethoxy)phenyl]-4-oxo-4,5,6,7-tetrahydro-1H-indole-3-carboxamide] gave a melting point of 192 to 196 °C.
Molecule `O=C(O)COc1ccc(NC(=O)c2c[nH]c3c2C(=O)CCC3)cc1F` [Compound 223, N-[3-Fluoro-4-(2-hydroxy-2-oxoethoxy)phenyl]-4-oxo-4,5,6,7-tetrahydro-1H-indole-3-carboxamide] displayed a melting point of 246 to 248 °C.
For `CCN(CC)C(=O)COc1ccc(NC(=O)c2c[nH]c3c2C(=O)CCC3)cc1F` [Compound 225, N-[3-Fluoro-4-(2-diethylamino-2-oxoethoxy)phenyl]-4-oxo-4,5,6,7-tetrahydro-1H-indole-3-carboxamide], the melting point is 193 to 196 °C.
Consider `CCCN(CCC)CCNC(=O)COc1ccc(NC(=O)c2c[nH]c3c2C(=O)CCC3)cc1` [Compound 228, N-[2-(dipropylamino)ethyl]-2-{4-[(4-oxo-(4,5,6,7-tetrahydroindol-3-yl))carbonylamino]phenoxy}acetamide], for which the melting point is 148 to 150 °C.
`O=C(Nc1ccc(OCC(=O)N2CCOCC2)c(F)c1)c1c[nH]c2c1C(=O)CCC2` [Compound 232, N-[3-fluoro-4-(2-morpholin-4-yl-2-oxoethoxy)phenyl](4-oxo-(4,5,6,7-tetrahydroindol-3-yl))carboxamide]: the melting point amounted to 110 °C.

The term pKi denotes −log10 of the Ki, conventionally taken in molar units. High values mean a low Ki, low ones a high Ki. As a reminder, the melting point is the temperature, or range, at which the solid turns liquid.

Source of the values: patent US6515140B2, “Fused pyrrolecarboxamides; a new class of GABA brain receptor ligands” (Neurogen Corporation, priority 1996, dated 2003).
